Laboratory results reported in ChEMBL document CHEMBL4673251, “Fluorinated 2-Arylcyclopropan-1-amines - A new class of sigma receptor ligands” (Bioorg Med Chem, 2020).
The source made the active and inactive calls. The rule behind the calls is not given here.

Tests used:
[1] = biological target: T1, Sigma non-opioid intracellular receptor 1 (Cavia porcellus, UniProt Q60492); test: Displacement of [3H]-(+)-pentazocine from sigma1 receptor in guinea pig brain membrane incubated for 120 mins by solid scintillation counting method; format: cell membranes, Cell membrane
T1 sequence (Q60492 whole entry): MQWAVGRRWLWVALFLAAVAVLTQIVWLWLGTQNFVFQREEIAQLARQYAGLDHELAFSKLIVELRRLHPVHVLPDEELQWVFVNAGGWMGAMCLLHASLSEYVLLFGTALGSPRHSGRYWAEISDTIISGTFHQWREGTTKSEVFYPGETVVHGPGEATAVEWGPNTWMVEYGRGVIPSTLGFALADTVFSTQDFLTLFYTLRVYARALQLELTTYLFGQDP

[2] = biological target: T2, Sigma intracellular receptor 2 (Rattus norvegicus) (UniProt Q5U3Y7); test: Displacement of [3H]-di-o-tolylguanidine from Sigma 2 receptor in rat liver membrane at 1 uM incubated for 120 mins by solid scintillation counting method; format: cell membranes; details: Cell membrane
T2 sequence (whole entry): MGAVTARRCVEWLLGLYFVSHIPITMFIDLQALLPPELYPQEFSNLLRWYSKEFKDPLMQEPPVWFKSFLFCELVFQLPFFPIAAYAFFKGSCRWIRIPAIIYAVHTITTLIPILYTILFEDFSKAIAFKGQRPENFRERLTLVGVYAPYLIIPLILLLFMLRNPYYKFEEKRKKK

Sus scrofa = species: Sus scrofa; test: Displacement of [3H]-(+)-MK-801 from PCP binding site of NMDA receptor in pig brain cortex membranes after 120 mins by solid scintillation counting method; details: Cell membrane
[3] = biological target: T3, Sigma intracellular receptor 2 (Rattus norvegicus, UniProt Q5U3Y7); test: Displacement of [3H]-di-o-tolylguanidine from Sigma 2 receptor in rat liver membrane incubated for 120 mins by solid scintillation counting method; format: cell membranes, Cell membrane
T3 sequence (Q5U3Y7 whole entry): T2 sequence (whole entry)

[4] = biological target: Sigma non-opioid intracellular receptor 1 (Cavia porcellus) (UniProt Q60492); test: Displacement of [3H]-(+)-pentazocine from sigma1 receptor in guinea pig brain membrane at 1 uM incubated for 120 mins by solid scintillation counting method; format: cell membranes; details: Cell membrane
Chain of Sigma non-opioid intracellular receptor 1 (Cavia porcellus) (Q60492 whole entry): as the sequence (Q60492 whole entry) above

[5] = Dissociation constant, pKa of the compound; format: physicochemical
[6] = biological target: T1, Sigma non-opioid intracellular receptor 1; test: Displacement of [3H]-pentazocine from sigma1 receptor in guinea pig brain membrane incubated for 150 mins by scintillation counting method; format: cell membranes, Cell membrane
[7] = Displacement of [3H]-di-o-tolylguanidine from Sigma 2 receptor in guinea pig brain membrane incubated for 120 mins by scintillation counting method; format: cell membranes, Cavia porcellus, Cell membrane

inhibition [2] [%] | Activity (Sus scrofa) | inhibition [4] [%] | Structure (SMILES) | also measured
– | inactive | 24 | COc1ccc(C2(F)CC2N)cc1OC (stereo not given) | Ki [3]: 3100 nM
0 | inactive | 0 | FC1(c2ccccc2)CC1NCc1ccccc1 (stereo not given) | –
5 | inactive | 24 | NCCC1CC1(F)c1ccccc1 (stereo not given) | –
– | inactive | – | NC1CC1(F)c1ccc(Cl)cc1 (cis isomer) | Ki [1]: 1500 nM; Ki [3]: 2000 nM
– | – | – | COc1cccc(C2(F)CC2N)c1.Cl (cis isomer) | pKa [5]: 6.89
– | inactive | 25 | Cc1ccc(C2(F)CC2N)cc1 (cis isomer) | Ki [3]: 3100 nM
– | inactive | 14 | COc1cccc(C2(F)CC2N)c1 (cis isomer) | –
– | inactive | 17 | NC1CC1(F)c1ccc(S(F)(F)(F)(F)F)cc1 (cis isomer) | –
49 | inactive | 13 | NC1CC1(F)c1cccc([N+](=O)[O-])c1 (cis isomer) | –
23 | inactive | 30 | NC1CC1(F)c1ccccc1 (cis isomer) | –
19 | inactive | 0 | CNC1CC1(F)c1ccccc1 (racemic) | –
– | – | – | N[C@@H]1C[C@H]1c1ccccc1.N[C@H]1C[C@@H]1c1ccccc1 (racemic) [TRANYLCYPROMINE] | Ki [1]: 1800 nM; Ki [3]: 6200 nM
– | – | – | COC(=O)C1(c2ccccc2)CC1CNC12CC3CC(CC(C3)C1)C2 (racemic; cis) | Ki [6]: 3 nM; Ki [7]: 23 nM
– | – | – | COC(=O)C1(c2ccccc2)CC1CNC12CC3CC(CC(C3)C1)C2 (racemic; trans) | Ki [6]: 226 nM; Ki [7]: 135 nM
0 | inactive | 0 | CNC1CC1(F)c1ccccc1 (stereo in doubt; 11a) | –
– | – | – | NC1CC1(F)c1ccc(F)cc1 (stereo in doubt; 17b) [listing 1 of 2 here] | Ki [1]: 428 nM; Ki [3]: 2400 nM
– | – | – | COc1ccc(C2(F)CC2N)cc1 (stereo in doubt; 19b) [listing 1 of 2 here] | Ki [1]: 366 nM
33 | inactive | – | COc1ccc(C2(F)CC2N)cc1 (stereo in doubt; 19b) [listing 2 of 2 here] | –
– | – | – | NC1CC1(F)c1ccc(C(F)(F)F)cc1 (stereo in doubt; 20b) [listing 1 of 2 here] | Ki [1]: 13 nM; Ki [3]: 95 nM; pKa ([5]; read-out: pKa): 7
– | inactive | – | NC1CC1(F)c1ccc(C(F)(F)F)cc1 (stereo in doubt; 20b) [listing 2 of 2 here] | –

inhibition [2] [%] | Activity (Sus scrofa) | inhibition [4] [%] | Structure (SMILES) | also measured
– | – | – | NC1(c2ccccc2)CC1(F)c1ccccc1 (stereo in doubt; 24b) [listing 1 of 2 here] | Ki [1]: 527 nM; Ki [3]: 7100 nM
– | inactive | – | NC1(c2ccccc2)CC1(F)c1ccccc1 (stereo in doubt; 24b) [listing 2 of 2 here] | –
53 | inactive | 1 | NC1CC1(F)c1ccc([N+](=O)[O-])cc1 (stereo in doubt; 25b) | –
16 | inactive | 0 | NC1CC1(F)c1cccc(F)c1 (stereo in doubt; 27b) | –
– | – | – | NC1CC1(F)c1ccc(F)cc1 (trans isomer) [listing 1 of 2 here] | Ki [3]: 1200 nM
– | – | – | NC1CC1(F)c1ccc(C(F)(F)F)cc1 (trans isomer) [listing 1 of 2 here] | Ki [1]: 1900 nM; Ki [3]: 911 nM
– | – | – | COc1cccc(C2(F)CC2N)c1 (trans isomer) [listing 1 of 2 here] | pKa ([5]; read-out: pKa): 6.63
– | – | – | NC1(c2ccccc2)CC1(F)c1ccccc1 (trans isomer) [listing 1 of 2 here] | Ki [1]: 399 nM; Ki [3]: 2300 nM
– | – | – | COc1ccc(C2(F)CC2N)cc1 (trans isomer) [listing 1 of 2 here] | Ki [1]: 4.8 nM; pKa ([5]; read-out: pKa): 7.5
– | – | – | NC1CC1(F)c1ccc(S(F)(F)(F)(F)F)cc1 (trans isomer) [listing 1 of 2 here] | Ki [1]: 660 nM
32 | inactive | – | COc1ccc(C2(F)CC2N)cc1 (trans isomer) [listing 2 of 2 here] | –
– | inactive | 25 | COc1cccc(C2(F)CC2N)c1 (trans isomer) [listing 2 of 2 here] | –
0 | inactive | 0 | Fc1cccc(C2(F)CC2NCc2ccccc2)c1 (trans isomer) | –
– | inactive | – | NC1(c2ccccc2)CC1(F)c1ccccc1 (trans isomer) [listing 2 of 2 here] | –
– | inactive | – | NC1CC1(F)c1ccc(C(F)(F)F)cc1 (trans isomer) [listing 2 of 2 here] | –
– | inactive | – | NC1CC1(F)c1ccc(S(F)(F)(F)(F)F)cc1 (trans isomer) [listing 2 of 2 here] | –
0 | inactive | 13 | NC1CC1(F)c1ccc([N+](=O)[O-])cc1 (trans isomer) | –
31 | inactive | 0 | NC1CC1(F)c1cccc(F)c1 (trans isomer) | –
18 | inactive | 16 | NC1CC1(F)c1cccc([N+](=O)[O-])c1 (trans isomer) | –

Structure (SMILES) | inhibition [2] [%] | Activity (Sus scrofa) | inhibition [4] [%] | also measured
NCC1CC1(F)c1ccccc1 (stereo not given) | 24 | inactive | – | Ki [1]: 429 nM
NC1CC1(F)c1ccc(F)cc1 (stereo in doubt; 17b) [listing 2 of 2 here] | – | inactive | – | –
NC1CC1(F)c1ccc(F)cc1 (trans isomer) [listing 2 of 2 here] | – | inactive | 27 | –
